Measured values reported in patent US8080497B2, “Method of controlling the aquatic weed Hydrilla verticillata” (BASF SE, priority 2005, dated 2011).

Test system: Hydrilla verticillata
Assay: Greenhouse container test, static exposure of Hydrilla verticillata in water columns
Assay type: in vivo
Settings: for Hydrilla Shoot Length: static exposure, 11 WAT, control 30.4 cm
Method: To begin the experiment, PVC cylinders were filled and maintained with a volume of 4000 ml of dechlorinated water that was maintained at room temperature (24° C.). To each cylinder, an established Hydrilla verticillata plant (potted in sand mixture) was transferred into the water column. Hydrilla plants were selected for uniformity and length of shoot growth (approx 15 cm). Plants were allowed to equilibrate in the columns for 24 hrs prior to herbicide treatment. Experimental treatments included an untreated control, and imazamox at 50 and 100 ppb of actual acid equivalent of herbicide. Treatments were applied to water columns by the use of a pipette. Amount of herbicide applied was based on the total volume of the cylinders (4000 ml). After initial herbicide treatment, the water columns were gently stirred to ensure uniform distribution. Treatments were arranged as a completely random design with 3 replications. Each cylinder was considered the experimental unit. Greenhouse conditions were maintained at 24/18° C. (day/night) cycle for the duration of the experiment. Natural day length was supplemented with halogen lighting to provide a 14 h photoperiod. Water level in the cylinders was periodically checked and maintained at the 4000 ml level for the duration of the study. After 11 weeks of exposure, Hydrilla shoot lengths were measured to ascertain herbicide effects.

COCc1cnc(C2=NC(C)(C(C)C)C(=O)N2)c(C(=O)O)c1 (racemic) [Imazamox, (RS)-2-(4-isopropyl-4-methyl-5-oxo-2-imidazolin-2-yl)-5-methoxymethylnicotinic acid]
effect on the growth of Hydrilla (after the exposure period (11 weeks)): significant effect
visual symptomology (after the exposure period (11 weeks), intensity tended to be rate responsive): reduction in plant vigour, chlorosis and reduction of internodal length
Hydrilla Shoot Length (rate 50 ppb): 18.5 cm
Hydrilla Shoot Length (rate 100 ppb): 12.3 cm
